Measured values taken from patent publication US6355453B1, “Method for making fluorinated sugars having a side chain and use thereof” (Forschungszentrum Julich GmbH, priority 1998, dated 2002).

Tests used:
[1] = target: T1, N-acetylneuraminic acid aldolase (Escherichia coli, UniProt P0A6L4); settings: value given in the literature; read-out: Km value for the standard ManNAc/Pyr reaction; cited from earlier work
[2] = target: T1, N-acetylneuraminic acid aldolase; assay: Kinetic study of the aldolase-catalysed ManNAc/F-pyr reaction (Equation 1, non-linear regression of initial-rate data)
O=C(O)C(=O)CF = assay: purified protein, by the assay type; settings: other: ManNAc/F-pyr reaction, 24 U*/ml aldolase, pH 7.5, 25° C.

## CC(=O)C(=O)O [Pyr, pyruvic acid]
[1]
  Km: 8.5 mM

## O=C(O)C(=O)CF [F-Pyr, 1-fluoro-2-oxopropanoic acid]
[2]
  Ki: 49 mM
[2]; enzyme charge of >24 U*/mg
  maximal activity of the reaction: 0.9 U/mg

## N-acetylneuraminic acid aldolase (Escherichia coli K-12)
O=C(O)C(=O)CF
  Km: 41 mM
